# pIC50: −log10 of the molar value. Where two headings read alike, the source gives them in different places.
# Columns and labels:
# Format in all cases: cell-based
# H358 cells [1] = assay: cells
# Experimental: The cytotoxicity of HGPF, cyclic peptide (CLYDVAGSDKYCGP), FN1-8, and FN1-8 methylamino derivative (FN1-8-CH2-NH2) was detected through CCK8 experiment. The cyclic peptide (CLYDVAGSDKYCGP) has a sequence shown in SEQ ID NO: 4, and it is Cys-Leu-Tyr-Asp-Val-Ala-Gly-Ser-Asp Lys-Tyr-Cys-Gly-Pro. The experimental steps are as follows:
# 8.1 Plate laying: Inoculate H358 cells in logarithmic growth phase into a 96-well plate (100 μl/well), with 6 replicate wells per group and a cell count of 5×10^3 cells per well, then place and culture in a 37° C., 5% CO2 incubator for 12 hours.
# 8.2 Use different concentrations of HGPF, HGPF+FAPα, cyclic peptides, FN1-8, and FN1-8-CH2-NH2 to treat with the experimental group. First, prepare the above drugs into a 100 mM mother solution, and then set […], namely 100 μM, 50 μM, 25 μM, 12.5 μM, 6.25 μM, 3.125 μM, 1.5625 μM, and 0.78125 μM, wherein the HGPF+FAPα group was the group added FAPα (1 μM) after adding the above concentrations of HGPF to simulate the tumor tissue microenvironment.
# 8.3 After 24 hours, wash the cells twice with PBS, then add 100 μL of pre-mixed CCK8 solution (culture medium:CCK8 working solution=9:1) to each well, and then continue to culture in a 37° C., 5% CO2 incubator for 2 hours.
# 8.4 Use a microplate reader to measure the absorbance D (2) of each well at a wavelength of 450 nm. Analyze the D (2) values of the blank group, the control group, and the experimental group to determine cellular activity. The cell survival rate reflects the cytotoxicity of drugs. The groups are as follows: • Experimental group (culture medium containing cells, CCK-8, test drug) • Control group (culture medium containing cells, CCK-8, without test drug) • Blank group (culture medium without cells and test substance, containing CCK-8)
# [2] = test system: lung cancer cell line H358 (carrying KRAS G12C mutation); assay: Uptake of HGP-FITC by lung cancer cells, flow cytometry; settings: different concentrations, 8 hours
# Experimental: 6.2 Incubate lung cancer cell line H358 (carrying KRAS G12C mutation) with different concentrations of HGP-FITC, and detect by flow cytometry after 8 hours.
# KRAS G12C = biological target: T1, KRAS G12C (Homo sapiens, UniProt P01116, G12C); assay: Specificity of HGP-FITC targeting KRAS G12C (pre-blocking, flow cytometry); settings: then 25 μM HGP-FITC, 8 hours
# T1 construct: endogenous in cells; host or cells: H358 lung cancer cells
# Experimental: 6.3 Based on the flow cytometry results, select a concentration of 25 μM for subsequent experiments. The lung cancer cell line H358 (carrying KRAS G12C mutation) was first blocked with 1:1000 KRAS antibody or 10 μM Sotorasib (KRAS G12C inhibitor) for 24 hours, and then incubated with 25 μM HGP-FITC. Fluorescence uptake was detected by flow cytometry after 8 hours.
# H358 cells [3] = assay: Scratch test, proliferation and migration of lung cancer cells; settings: H358, 10 μM, 24 hours
# Experimental: The inhibitory effects of the conjugate HGPF and cyclic peptide (CLYDVAGSDKYCGP) on the proliferation and migration of lung cancer cells were detected by scratch test. The experimental steps are as follows:
# 9.1 Plate laying: First, mark 3 positioning lines at the bottom of the 6-well plate, then inoculate H358 cells in logarithmic growth phase onto the 6-well plate (2 ml/well), with a cell count of 1×10^6 per well, and then culture in a 37° C., 5% CO2 incubator for 24 hours.
# 9.2 Marking: Place the plate cover above the 6-well plate, use a 100μ pipettor tip to draw 3 straight lines vertically for each hole; then wash 4 times with PBS to wash away floating cell debris.
# 9.3 Administration: Replace the culture medium with a medium containing 2% serum, administer 10 μM of the drug to each group, take photos at 0 and 24 hours, observe scratch healing, and analyze with ImageJ software.
# T1 sequence (P01116 1-188 isoform P01116-2 G12C): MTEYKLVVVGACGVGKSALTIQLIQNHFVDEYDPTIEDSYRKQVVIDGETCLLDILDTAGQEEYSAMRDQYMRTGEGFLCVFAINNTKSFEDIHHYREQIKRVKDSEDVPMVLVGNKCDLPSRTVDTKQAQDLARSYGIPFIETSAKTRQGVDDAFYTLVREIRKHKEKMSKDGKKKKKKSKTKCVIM
smiles,measurement,setting,value
"O=C(NCc1ccc(O)cc1)C1C(c2ccccc2)=NN(c2ccccc2)C1c1ccccc1 (stereo not drawn) [FN1-8, reference compound]",cytotoxicity against lung cancer cells,H358 cells [1],good cytotoxicity
same,effect of further increasing the concentration on cell viability,"H358 cells [1]; H358, 24 hours, up to 100 μM",cannot achieve the effect of completely inhibiting cell viability
same,pIC50,"H358 cells [1]; Homo sapiens, NCI-H358, 24 h",5.36
NCc1ccc(CNC(=O)C2C(c3ccccc3)=NN(c3ccccc3)C2c2ccccc2)cc1 (stereo not drawn) [FN1-8-CH2-NH2],cytotoxicity against lung cancer cells,H358 cells [1],good cytotoxicity
same,inhibition at 100 µM,"H358 cells [1]; Homo sapiens, NCI-H358, 100 μM, 24 hours, read-out: inhibition rate on H358 cells",100%
same,pIC50,"H358 cells [1]; Homo sapiens, NCI-H358, H358, 24 hours, CCK8, read-out: IC50",5.33
CC(C)C[C@@H]1NC(=O)[C@@H](N)CSSC[C@@H](C(=O)NCC(=O)N2CCC[C@H]2C(=O)NCCCCC(NC(=S)Nc2ccc3c(c2)C(=O)OC32c3ccc(O)cc3Oc3cc(O)ccc32)C(=O)O)NC(=O)[C@H](Cc2ccc(O)cc2)NC(=O)[C@H](CCCCN)NC(=O)[C@H](CC(=O)O)NC(=O)[C@H](CO)NC(=O)CNC(=O)[C@H](C)NC(=O)[C@H](C(C)C)NC(=O)[C@H](CC(=O)O)NC(=O)[C@H](Cc2ccc(O)cc2)NC1=O (stereo partly drawn) [HGP-FITC],uptake of HGP-FITC by H358 cells,[2],concentration dependent manner
same,uptake of HGP-FITC by H358 cells after pre-block with Sotorasib,KRAS G12C; 10 μM Sotorasib 24 hours,significantly reduced
same,uptake of HGP-FITC by H358 cells after pre-block with KRAS antibody,KRAS G12C; 1:1000 KRAS antibody 24 hours,significantly reduced
CC(C)C[C@@H]1NC(=O)[C@@H](N)CSSC[C@@H](C(=O)NCC(=O)N2CCC[C@H]2C(=O)NCc2ccc(CNC(=O)C3C(c4ccccc4)C(c4ccccc4)=NN3c3ccccc3)cc2)NC(=O)[C@H](Cc2ccc(O)cc2)NC(=O)[C@H](CCCCN)NC(=O)[C@H](CC(=O)O)NC(=O)[C@H](CO)NC(=O)CNC(=O)[C@H](C)NC(=O)[C@H](C(C)C)NC(=O)[C@H](CC(=O)O)NC(=O)[C@H](Cc2ccc(O)cc2)NC1=O (stereo partly drawn) [HGPF],cytotoxicity against lung cancer cells,H358 cells [1],weak cytotoxicity
same,pIC50,H358 cells [1]; 24 h,5.44
same,inhibitory effect on proliferation and migration of tumor cells,H358 cells [3]; with FAPα,significantly inhibited
same,inhibitory effect on proliferation and migration of tumor cells,H358 cells [3]; without FAPα,no inhibitory effect
"CC(C)C[C@@H]1NC(=O)[C@@H](N)CSSC[C@@H](C(=O)NCC(=O)N2CCC[C@H]2C(=O)O)NC(=O)[C@H](Cc2ccc(O)cc2)NC(=O)[C@H](CCCCN)NC(=O)[C@H](CC(=O)O)NC(=O)[C@H](CO)NC(=O)CNC(=O)[C@H](C)NC(=O)[C@H](C(C)C)NC(=O)[C@H](CC(=O)O)NC(=O)[C@H](Cc2ccc(O)cc2)NC1=O [cyclic peptide, Cys-Leu-Tyr-Asp-Val-Ala-Gly-Ser-Asp Lys-Tyr-Cys-Gly-Pro]",cytotoxicity against lung cancer cells,H358 cells [1],weak cytotoxicity
same,inhibitory effect on proliferation and migration of tumor cells,H358 cells [3]; without FAPα,no inhibitory effect

# Source: patent US20250345311A1, “CONJUGATE OF POLYPEPTIDE AND SMALL MOLECULE TARGETING KRAS AND ANTI-CANCER APPLICATION THEREOF” (Guangzhou Medical University, priority 2024, published 2025)
